According to article PMC5919688, “Cyclic di-AMP regulation of osmotic homeostasis is essential in Group B Streptococcus” (PLoS Genetics, 2018):

Experiments:
DacA (rDacA) = target: T1, DacA (rDacA) (Streptococcus agalactiae, UniProt Q8E051); experiment: RP-HPLC of c-di-AMP formation; type: biochemical; conditions: 2.5 uM rDacA, 1 mM ATP, 50 mM Tris pH 8.5, 100 mM NaCl, 10 mM MnCl2, 37 C
T1 construct: amino acids 96-243, transmembrane domain deleted, N-terminal 6xHis (pET28a), E. coli Bli5, purified
T1 sequence (Q8E051 96-243): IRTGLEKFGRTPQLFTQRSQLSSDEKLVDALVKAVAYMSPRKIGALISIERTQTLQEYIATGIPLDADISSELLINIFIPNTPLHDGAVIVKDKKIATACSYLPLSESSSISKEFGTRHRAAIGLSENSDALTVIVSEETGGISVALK

OpuCA (Gbs0235) = target: T2, OpuCA (Gbs0235) (Streptococcus agalactiae, UniProt Q8E7C0); experiment: DRaCALA, […]-labelled c-di-AMP, whole E. coli extract; type: binding; conditions: […]P-c-di-AMP, […] Tris pH […] NaCl, […] MgCl2, room temperature; labelled compound; competition with […] cold nucleotide
T2 construct: full length, N-terminal His-MBP tag (signal only with this tag), expressed in E. coli Bli5, whole-cell extract
T2 sequence (Q8E7C0 1-381): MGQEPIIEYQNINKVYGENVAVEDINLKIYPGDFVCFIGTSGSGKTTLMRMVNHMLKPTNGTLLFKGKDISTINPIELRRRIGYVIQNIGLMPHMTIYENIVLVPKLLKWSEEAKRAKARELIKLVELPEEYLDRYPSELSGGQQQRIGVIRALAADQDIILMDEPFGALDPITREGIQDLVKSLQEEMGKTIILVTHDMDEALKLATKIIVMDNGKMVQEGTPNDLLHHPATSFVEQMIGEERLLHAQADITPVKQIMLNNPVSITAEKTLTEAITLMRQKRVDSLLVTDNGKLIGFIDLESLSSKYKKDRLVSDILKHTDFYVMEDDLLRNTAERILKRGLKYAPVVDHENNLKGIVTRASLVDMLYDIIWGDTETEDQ

TrkH (Gbs1639) = target: T3, TrkH (Gbs1639) (Streptococcus agalactiae, UniProt Q8DYA0); experiment: as above; type: binding; conditions: 1 nM 32P-c-di-AMP, 40 mM Tris pH 7.5, 100 mM NaCl, 10 mM MgCl2, room temperature; labelled compound; competition with 200 uM cold nucleotide
T3 construct: gene SAG1590; full length, N-terminal His tag (detected by Western only with the His tag), expressed in E. coli Bli5, whole-cell extract
T3 sequence (Q8DYA0 1-449): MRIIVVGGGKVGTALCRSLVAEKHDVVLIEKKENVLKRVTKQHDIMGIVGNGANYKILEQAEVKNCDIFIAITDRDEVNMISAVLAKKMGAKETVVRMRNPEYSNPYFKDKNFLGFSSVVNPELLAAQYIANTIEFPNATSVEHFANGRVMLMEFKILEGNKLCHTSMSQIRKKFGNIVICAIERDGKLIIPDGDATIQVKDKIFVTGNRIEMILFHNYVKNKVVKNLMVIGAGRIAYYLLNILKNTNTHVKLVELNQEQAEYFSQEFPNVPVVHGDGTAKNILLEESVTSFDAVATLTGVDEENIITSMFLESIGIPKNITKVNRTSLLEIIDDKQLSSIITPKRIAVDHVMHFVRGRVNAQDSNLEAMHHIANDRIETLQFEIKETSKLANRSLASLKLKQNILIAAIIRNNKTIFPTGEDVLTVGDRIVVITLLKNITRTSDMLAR

BusR (Gbs1201) = target: T4, BusR (Gbs1201) (Streptococcus agalactiae, UniProt I7JWA3); experiment: as above; type: binding; conditions: 1 nM 32P-c-di-AMP, 40 mM Tris pH 7.5, 100 mM NaCl, 10 mM MgCl2, room temperature; labelled compound; competition with 200 uM cold nucleotide
T4 construct: gene BM110_ORF1201; full length (213 aa), N-terminal His or His-MBP tag, expressed in E. coli Bli5, whole-cell extract
T4 sequence (I7JWA3 1-213): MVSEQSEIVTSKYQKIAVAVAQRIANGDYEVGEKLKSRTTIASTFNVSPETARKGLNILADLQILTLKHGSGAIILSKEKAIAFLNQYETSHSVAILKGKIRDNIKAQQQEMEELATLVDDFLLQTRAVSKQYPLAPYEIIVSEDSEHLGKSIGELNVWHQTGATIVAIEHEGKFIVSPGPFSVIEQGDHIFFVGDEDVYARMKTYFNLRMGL

KtrA (Gbs1678) = target: T5, KtrA (Gbs1678) (Streptococcus agalactiae, UniProt Q8E3S8); experiment: as above; type: binding; conditions: […]P-c-di-AMP, […] Tris pH […] NaCl, […] MgCl2, room temperature; labelled compound; competition with […] cold nucleotide
T5 construct: full length, N-terminal His or His-MBP tag, expressed in E. coli Bli5, whole-cell extract
T5 sequence (Q8E3S8 1-223): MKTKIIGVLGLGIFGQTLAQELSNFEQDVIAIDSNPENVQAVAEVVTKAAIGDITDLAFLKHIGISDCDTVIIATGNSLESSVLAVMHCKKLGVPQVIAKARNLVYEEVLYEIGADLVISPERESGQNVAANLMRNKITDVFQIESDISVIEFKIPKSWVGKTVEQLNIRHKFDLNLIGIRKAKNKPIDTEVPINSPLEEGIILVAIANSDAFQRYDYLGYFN

[1] = system: T6, BusR (rBusR) (Streptococcus agalactiae NEM316), ORF:6b20ee22; experiment: EMSA; conditions: 25 mM Na2HPO4/NaH2PO4 pH 8, 50 mM NaCl, 2 mM MgCl2, 1 mM DTT, 10% glycerol, 0.1 ug/ul poly(dI-dC), 0.02 ug/ul BSA, 20 min room temperature; 6% PAGE at 4 C
T6 sequence: T4 sequence (I7JWA3 1-213)

Row | Compound | RP-HPLC of c-di-AMP formation (DacA (rDacA)) | DRaCALA, 32P-labelled c-di-AMP, whole E. coli extract (OpuCA (Gbs0235)) | DRaCALA, 32P-labelled c-di-AMP, whole E. coli extract (TrkH (Gbs1639)) | DRaCALA, 32P-labelled c-di-AMP, whole E. coli extract (BusR (Gbs1201)) | DRaCALA, 32P-labelled c-di-AMP, whole E. coli extract (KtrA (Gbs1678)) | binding [1]
1 | Nc1ncnc2c1ncn2[C@@H]1O[C@H](COP(=O)(O)OP(=O)(O)OP(=O)(O)O)[C@@H](O)[C@H]1O [ATP] | the purified recombinant DacA protein produces c-di-AMP from two molecules of ATP |  |  |  |  | 
2 | Nc1ncnc2c1ncn2[C@@H]1O[C@@H]2COP(=O)(O)O[C@H]3[C@@H](O)[C@H](n4cnc5c(N)ncnc54)O[C@@H]3COP(=O)(O)O[C@H]2[C@H]1O [c-di-AMP] | the purified recombinant DacA protein produces c-di-AMP from two molecules of ATP | C-di-AMP binds to four proteins: KtrA (Gbs1678), TrkH (Gbs1639), OpuCA (Gbs0235) | C-di-AMP binds to four proteins: KtrA (Gbs1678), TrkH (Gbs1639) | C-di-AMP binds to four proteins: KtrA (Gbs1678), TrkH (Gbs1639), OpuCA (Gbs0235) and Gbs1201 | C-di-AMP binds to four proteins: KtrA (Gbs1678) | 
3 | AGTTGTAATATTAATACTAATAAGTCTTTAAATAATTCAATAATGCCATAACAATAATGGTGTGGGCTAATTAAAATATCTCTAAGCAAAGGTGTTGACATAAAGAGACCATACATGATATTATAGTTATGTTCTGTTTCGGCAGTTTATTTTTTTGAGTAAAAAAGTGACTACCCTTTTACGATACTTTAACGTCACTTTATAGATAAGACACATAACCTTAAAAATAAGATACGAAATT (double strand) [PbusAB EMSA fragment (245 bp)] |  |  |  |  |  | binds
